The values below come from article PMC10003107, “Selectivity of Hydroxamate- and Difluoromethyloxadiazole-Based Inhibitors of Histone Deacetylase 6 In Vitro and in Cells” (International Journal of Molecular Sciences, 2023).

Several values for one entry are separate records, joined by “and”; a condition that tells them apart may be missing. Equal values may be shown once.

The target in one data set is T1, HDAC6 (Homo sapiens, UniProt Q9UBN7).
T1 construct: HDAC6 2-1215 Open Biosystems; Strep-FLAG-HALO (N); made in house; host or cells: HEK293/T17
T1 sequence (Q9UBN7 2-1215): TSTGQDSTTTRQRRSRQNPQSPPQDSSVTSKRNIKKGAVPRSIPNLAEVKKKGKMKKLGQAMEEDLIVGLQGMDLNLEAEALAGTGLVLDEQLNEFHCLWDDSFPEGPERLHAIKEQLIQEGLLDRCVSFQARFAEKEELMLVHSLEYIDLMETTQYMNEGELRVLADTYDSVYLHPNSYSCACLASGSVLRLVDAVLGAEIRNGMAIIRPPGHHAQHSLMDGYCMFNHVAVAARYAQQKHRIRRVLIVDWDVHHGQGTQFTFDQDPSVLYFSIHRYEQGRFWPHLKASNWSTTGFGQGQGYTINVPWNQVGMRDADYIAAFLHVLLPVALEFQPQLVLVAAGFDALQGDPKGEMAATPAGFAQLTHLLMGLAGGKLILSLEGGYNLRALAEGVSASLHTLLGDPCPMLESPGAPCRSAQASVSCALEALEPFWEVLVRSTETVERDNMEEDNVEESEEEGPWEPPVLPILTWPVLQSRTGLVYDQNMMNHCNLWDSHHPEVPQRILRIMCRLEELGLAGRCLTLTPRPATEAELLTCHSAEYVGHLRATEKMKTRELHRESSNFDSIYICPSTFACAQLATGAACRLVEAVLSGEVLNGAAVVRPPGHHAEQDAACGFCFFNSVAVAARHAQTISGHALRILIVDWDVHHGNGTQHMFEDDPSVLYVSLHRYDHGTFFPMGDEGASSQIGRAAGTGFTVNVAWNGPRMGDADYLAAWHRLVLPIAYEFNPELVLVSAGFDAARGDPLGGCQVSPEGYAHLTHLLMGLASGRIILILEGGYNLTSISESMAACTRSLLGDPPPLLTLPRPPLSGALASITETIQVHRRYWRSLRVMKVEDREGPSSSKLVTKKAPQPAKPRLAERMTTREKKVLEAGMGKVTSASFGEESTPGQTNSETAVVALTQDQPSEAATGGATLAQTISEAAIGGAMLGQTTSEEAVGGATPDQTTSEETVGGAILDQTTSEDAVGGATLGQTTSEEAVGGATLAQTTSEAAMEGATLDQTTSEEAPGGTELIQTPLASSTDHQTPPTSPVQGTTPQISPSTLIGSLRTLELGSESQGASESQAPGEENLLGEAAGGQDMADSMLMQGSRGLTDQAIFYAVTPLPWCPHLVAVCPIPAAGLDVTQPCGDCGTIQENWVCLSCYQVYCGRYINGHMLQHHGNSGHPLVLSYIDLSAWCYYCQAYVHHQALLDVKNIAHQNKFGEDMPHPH
The experiment in a line: In vitro deacetylation assay, HDAC6 (GAK substrate). Format: biochemical. Particulars: for EC50: Figure 2C, in vitro data in μM; for IC50: purified human HDAC6, Ac-GAK-Ac-AMC (GAK) substrate 10 µM.

For the next data set, the system named is tubulin acetylation. Nature of the data set: Tubulin acetylation in RPMI-8226 cells by quantitative Western blotting. The following applies: Homo sapiens, RPMI-8226, 6 h; read-out: IC50 tubulin deacetylation (relative tubulin acetylation). Format: cell-based. (In general: Immunoblotting shows a protein as a band on a membrane.)
A further data set has as its target T2, HDAC1 (Homo sapiens, UniProt Q13547).
T2 construct: HDAC1 1-482 Addgene; Strep-FLAG-HALO (N); made in house; host or cells: HEK293/T17
Nature of the data set: In vitro deacetylation assay, HDAC1 (GAK substrate). The following applies: for IC50: purified human HDAC1, GAK substrate 10 µM. Format: biochemical.

For a further data set, the system named is RPMI-8226 lymphoblasts. Nature of the data set: MTT viability assay. In kind it is cell-based. Particulars: RPMI-8226 cells, 48 h, MTT. How it is done: RPMI-8226 lymphoblasts (ATTC #CCL-155) were used to assess the cytotoxicity of tested compounds. […] Dilution series of tested inhibitors were prepared as 10x stock solutions in PBS and 10 μL was added to cells and incubated under a 5% CO2 atmosphere at 37 °C, for 2 days. Following incubation, 10 μL of MTT reagent (3-(4,5-dimethylthiazol-2-yl)-2,5-diphenyltetrazolium bromide, 5 mg/mL in PBS, Sigma Aldrich) was added to each well and incubated for 90 min, 37 °C, 5% CO2. […]

For the next data set, the system named is all other HDAC isoforms. The experiment in a line: In vitro isotype selectivity screening against panel of zinc-dependent human HDACs. In kind it is biochemical. How it is done:
Customized assays were used for individual HDAC isoforms to reflect their distinct substrate specificity. All reactions were carried out in the activity buffer comprising 50 mM HEPES, 140 mM NaCl, 10 mM KCl, pH 7.4 supplemented with 1 mg/mL bovine serum albumin (BSA) and 1 mM tris(2-carboxyethyl) phosphine (TCEP).
HDACs 1–9, 11: Assays were performed essentially as described previously. Briefly, the Ac-GAK-Ac-AMC substrate was used to determine the activity of HDACs 1, 2, 3, and 6; and the Boc-Lys(TFA)-AMC substrate was used for HDACs 4, 5, 7, 8, 9, and 11 (both substrates Bachem, Bubendorf, Switzerland). […] Released aminometyl coumarine was quantified using a CLARIOstar plate reader (BMG Labtech GmbH, Ortenberg, Germany) at λex/λem = 365/440 nm.
HDAC10: Recombinant human HDAC10 (0.5 nM) in the reaction buffer was preincubated with a 3-fold dilution series of a tested inhibitor at 37 °C for 15 min and the reaction initiated by the addition of a substrate (N8-acetylspermidine labeled with fluorescein; 10 µM final concentration) in a total volume of 50 µL. […] Reaction mixtures were analyzed by RP-HPLC with a Kinetex 2.6 μm XB-C18 100 Å column with a fluorescence detector set to λEX/λEM = 492/516.
HDAC inhibition was calculated using corresponding non-inhibited reactions as a control. […]

A further data set has as its system histone H3 acetylation. Nature of the data set: Histone H3 (K9/K14) acetylation in RPMI-8226 cells by Western blotting. The following applies: 6 h, Western blot. In kind it is cell-based.

T2 sequence (Q13547 whole entry): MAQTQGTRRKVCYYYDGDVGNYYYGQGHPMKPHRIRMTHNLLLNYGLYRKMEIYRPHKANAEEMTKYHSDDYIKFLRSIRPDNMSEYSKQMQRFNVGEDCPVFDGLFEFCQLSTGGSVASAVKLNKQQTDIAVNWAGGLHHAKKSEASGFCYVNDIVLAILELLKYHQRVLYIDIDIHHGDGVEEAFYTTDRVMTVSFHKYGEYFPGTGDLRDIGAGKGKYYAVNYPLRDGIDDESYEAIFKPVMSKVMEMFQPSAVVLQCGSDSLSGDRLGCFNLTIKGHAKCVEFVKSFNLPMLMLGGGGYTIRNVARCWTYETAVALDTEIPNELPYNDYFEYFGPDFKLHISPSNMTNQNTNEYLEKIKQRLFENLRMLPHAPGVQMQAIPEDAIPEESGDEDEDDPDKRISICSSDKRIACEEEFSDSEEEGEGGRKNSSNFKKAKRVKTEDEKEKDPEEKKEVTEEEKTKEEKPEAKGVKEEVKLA

As to `O=C(NO)c1cnc(NC2(c3cccc(F)c3)CCCCC2)nc1` [ACY-775], the EC50 was 0.0011 µM at HDAC6 and 1.19 µM on HDAC1 (Figure 2C, in vitro data (GAK) in μM). Besides, the figures for the IC50 on HDAC6, with tubulin acetylation and on HDAC1 were 1.11 nM, 426 nM and 1190 nM, respectively. In addition, at HDAC1 (ratio of IC50 HDAC1 (GAK) divided by IC50 HDAC6), the “SI (HD6/HD1) GAK, in vitro” value is on record as 1076.
For the compound `CS(=O)(=O)N(Cc1ccc(-c2nnc(C(F)F)o2)cn1)c1cccc(Cl)c1` [compound 7, N-(3-chlorophenyl)-N-((5-(5-(difluoromethyl)-1,3,4-oxadiazol-2-yl)pyridin-2-yl)methyl)methanesulfonamide], in the data set with RPMI-8226 lymphoblasts, the “effect on cell viability” value is “less pronounced effects on cell viability at high inhibitor concentrations”. In addition, the “selectivity for HDAC6 over all other HDAC isoforms” value in the data set with all other HDAC isoforms was 10,000 fold and > 10,000 fold. For the same compound, in the data set on histone H3 acetylation, the “effect on histone H3 (K9/K14) acetylation, class I HDAC inhibition” value is listed as “does not increase H3 acetylation even at the highest concentrations”. This compound came in with a half-maximal effective concentration (EC50) on HDAC6 of 0.0021 µM. Besides, the IC50 against HDAC6 is 2.1 nM and 2.06 nM; in the data set with tubulin acetylation, 616 nM; at HDAC1 it was over 50000 nM.

Usually EC50 stands for the concentration at which the effect is half-maximal. Lower therefore signals higher potency in that assay. One may read the IC50 as the point on the concentration scale where inhibition reaches its midpoint.
